According to patent US12162888B2, “Carboxamides as ubiquitin-specific protease inhibitors” (Valo Early Discovery, Inc., priority 2018, dated 2024):
pIC50: −log10 of the molar value. Where two headings read alike, the source gives them in different places.

Molecular target: T1, USP28 (His-tagged USP28-FL-mammalian) (Homo sapiens, UniProt Q96RU2)
T1 construct: Expression of USP28 (1-1077)-TEV-6*His (pTT5 vector) was carried out in Expi293f cells; made in house; host or cells: Expi293F cells (pTT5 vector)
T1 sequence (Q96RU2 1-1077): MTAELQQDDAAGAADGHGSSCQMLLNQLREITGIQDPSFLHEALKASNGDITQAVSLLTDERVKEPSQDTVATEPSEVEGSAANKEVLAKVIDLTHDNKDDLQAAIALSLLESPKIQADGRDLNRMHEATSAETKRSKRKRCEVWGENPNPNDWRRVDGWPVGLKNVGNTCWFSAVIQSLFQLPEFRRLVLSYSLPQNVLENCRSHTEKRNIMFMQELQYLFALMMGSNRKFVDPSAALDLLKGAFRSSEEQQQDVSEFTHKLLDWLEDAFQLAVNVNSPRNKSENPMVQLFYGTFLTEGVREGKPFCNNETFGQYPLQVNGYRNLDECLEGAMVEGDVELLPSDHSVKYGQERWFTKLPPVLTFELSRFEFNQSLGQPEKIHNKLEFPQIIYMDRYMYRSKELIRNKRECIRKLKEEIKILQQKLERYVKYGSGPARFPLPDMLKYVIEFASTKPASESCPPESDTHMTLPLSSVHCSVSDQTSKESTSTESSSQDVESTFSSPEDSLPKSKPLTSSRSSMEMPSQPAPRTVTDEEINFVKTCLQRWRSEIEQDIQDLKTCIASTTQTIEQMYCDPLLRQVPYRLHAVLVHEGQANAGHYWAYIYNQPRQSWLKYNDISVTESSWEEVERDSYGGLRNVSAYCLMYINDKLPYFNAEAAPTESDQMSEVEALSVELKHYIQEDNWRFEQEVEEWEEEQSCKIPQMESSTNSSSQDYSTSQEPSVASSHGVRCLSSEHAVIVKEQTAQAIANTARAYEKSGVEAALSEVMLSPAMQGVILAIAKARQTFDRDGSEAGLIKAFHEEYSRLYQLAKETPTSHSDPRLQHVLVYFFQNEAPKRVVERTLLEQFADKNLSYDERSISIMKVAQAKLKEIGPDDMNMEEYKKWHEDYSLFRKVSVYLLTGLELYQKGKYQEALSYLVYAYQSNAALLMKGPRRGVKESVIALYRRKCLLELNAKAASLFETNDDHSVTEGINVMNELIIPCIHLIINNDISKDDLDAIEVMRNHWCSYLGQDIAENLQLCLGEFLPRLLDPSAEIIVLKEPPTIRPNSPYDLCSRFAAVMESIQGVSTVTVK
Experiment: Ubiquitin-Rhodamine 110 Assay for USP28 Activity, Example A-1(a)
Assay type: biochemical
Method: Example A-1(a): Biochemical Assay: Ubiquitin-Rhodamine 110 Assay for USP28 Activity
The assay was performed in a final volume of 9 μL in assay buffer containing 20 mM Tris-HCl (pH 8.0, (1M Tris-HCl, pH 8.0 solution; Corning 46-031-CM)), 3 mM BME (2-Mercaptoethanol; Sigma 63689-25ML-F), 0.03% BGG (0.22 μM filtered, Sigma, G7516-25G), and 0.01% Triton X-100 (Sigma, T9284-10L). Nanoliter quantities of 10-point, 3-fold serial dilution in DMSO was pre-dispensed into 1536 assay plates (Corning, #3724BC) for a final test concentration of 25 μM to 1.3 nM, top to lowest dose, respectively. Enzyme USP28, construct His-tagged USP28-FL-mammalian, (protein expression and purification procedure described below). Concentration and incubation times were optimized for the maximal signal-to-background while maintaining initial velocity conditions at a fixed substrate concentration. The final concentration of the enzyme in the assay was […]. Final substrate (Ub-Rh110; Ubiquitin-Rhodamine 110, UbiQ-126) concentration was 25 nM with [Ub-Rh110]<<Km. 3 μL of 2× enzyme was added to assay plates (pre-stamped with compound) preincubated with […] for 30 minutes and then 3 μL of 2× Ub-Rh110 was added to assay plates. Plates were incubated for 45 minutes at room temperature before addition of 3 μL of stop solution (final concentration of 10 mM citric acid (Sigma, 251275-500G)). Fluorescence was read on the Envision (Excitation at 485 nm and Emission at 535 nm; Perkin Elmer) or on the PheraSTAR (Excitation at 485 nm and Emission at 535 nm; BMG Labtech).
Procedure for the Protein expression and purification for construct His-tagged USP28-FL-mammalian
Expression of USP28 (1-1077)-TEV-6*His (pTT5 vector) was carried out in Expi293f cells (sequence derived from uniprot ID: Q96RU2-1). Cells were re-suspended in lysis buffer B 50 mM Bicine, pH 8.0, 20 mM NaCl, 5% glycerol, 0.1% CHAPS, 5 mM β-ME, 1 mM PMSF, 1 ug/ml Leupeptin, 1 ug/ml Pepstatin) and lysed by sonication. Insoluble material was removed by centrifugation and the supernatant was loaded onto a Ni-NTA column (GE Healthcare) equilibrated with Ni Buffer A (50 mM Bicine, pH 8.0, 20 mM NaCl, 5% glycerol, 0.1% CHAPS, 5 mM R-ME.) and washed with Ni Buffer A+20 mM imidazole until A280 reached baseline. The protein was eluted with Ni Buffer B (50 mM Bicine, pH 8.0, 20 mM NaCl, 5% glycerol, 0.1% CHAPS, 5 mM β-ME, 300 mM imidazole.). The protein was further purified using a Superdex™ 200 10/300 GL column (GE Healthcare) equilibrated with 50 mM Bicine, pH 8.0, 20 mM NaCl, 5% glycerol, 0.1% CHAPS, 5 mM β-ME. The protein was concentrated to 2.5 mg ml-1, flash-frozen in liquid N2 and stored at −80° C.
For assay formats Example A-1(a), A-1(b), and A-2, data were reported as percent inhibition compared with control wells based on the following equation: % inh=1−((FLU−AveLow)/(AveHigh−AveLow)) where FLU=measured Fluorescence, AveLow=average Fluorescence of no enzyme control (n=16), and AveHighh=average Fluorescence of DMSO control (n=16). IC50 values were determined by curve fitting of the standard 4 parameter logistic fitting algorithm included in the Activity Base software package: IDBS XE Designer Model 205. Data is fitted using the Levenburg Marquardt algorithm.

[1] = biochemical IC50 range, Ubiquitin-Rhodamine 110 assay, read-out: USP28 A-1(a)
[2] = Ubiquitin-Rhodamine 110 assay, read-out: USP28 A-1(a) IC50 range
[3] = Ubiquitin-Rhodamine 110 biochemical assay, read-out: USP28 A-1(a) IC50 range

Row | SMILES | pIC50 [1] | further results
1 | CNc1ncc(C(=O)N[C@H]2COc3cc(N4CCNCC4)ccc3C2)c2[nH]cc(Cl)c12 [Example 675, 3-chloro-4-(methylamino)-N-[(3R)-7-(piperazin-1-yl)-3,4-dihydro-2H-1-benzopyran-3-yl]-1H-pyrrolo[3,2-c]pyridine-7-carboxamide] | 5.70 to 6.70 | –
2 | Cc1ccc2c(N)c(C(=O)N[C@H]3COc4cc(N5CC[C@@]6(CCCN6)C5)cc(F)c4C3)sc2n1 [Example 684, 3-amino-N-[(3R)-7-[(5S)-1,7-diazaspiro[4.4]nonan-7-yl]-5-fluoro-3,4-dihydro-2H-1-benzopyran-3-yl]-6-methylthieno [2,3-b]pyridine-2-carboxamide] | 7.30 to 9.00 | –
3 | Cc1ccc2c(N)c(C(=O)N[C@H]3COc4cc(N5CC[C@@]6(C5)OCC[C@H]6N)ccc4C3)sc2n1 [Example 409, 3-amino-N-[(3R)-7-[(4R,5S)-4-amino-1-oxa-7-azaspiro[4.4]nonan-7-yl]-3,4-dihydro-2H-1-benzopyran-3-yl]-6-methylthieno[2,3-b]pyridine-2-carboxamide] | – | pIC50 [2]: 7.30 to 9.00
4 | CN[C@@H]1CN(c2ccc3c(c2)OC[C@H](NC(=O)c2sc4nc(C)ccc4c2N)C3)C[C@@H]1COC [Example 680, 3-amino-N-[(3R)-7-[(3S,4S)-3-(methoxymethyl)-4-(methylamino)pyrrolidin-1-yl]-3,4-dihydro-2H-1-benzopyran-3-yl]-6-methylthieno[2,3-b]pyridine-2-carboxamide] | 7.30 to 9.00 | –
5 | CO[C@H](C)CO[C@H]1CN(c2ccc3c(n2)CC[C@H](NC(=O)c2sc4nc(C)ccc4c2N)C3)C[C@@H]1N [Example 482, 3-amino-N-[(6S)-2-[(3S,4S)-3-amino-4-[(2R)-2-methoxypropoxy]pyrrolidin-1-yl]-5,6,7,8-tetrahydroquinolin-6-yl]-6-methylthieno[2,3-b]pyridine-2-carboxamide] | – | pIC50 [3]: 6.70 to 7.30
6 | CO[C@H]1CCCN(c2ccc3c(n2)CC[C@H](NC(=O)c2sc4nc(C)ccc4c2N)C3)C[C@@H]1N [Example 494, 3-amino-N-[(6S)-2-[(3S,4S)-3-amino-4-methoxyazepan-1-yl]-5,6,7,8-tetrahydroquinolin-6-yl]-6-methylthieno[2,3-b]pyridine-2-carboxamide] | – | pIC50 [3]: 7.30 to 9.00
7 | CCNC1CN(c2ccc3c(c2)OCC(NC(=O)c2sc4nc(C)ccc4c2N)C3)CC1COC [Example 668, 3-amino-N-[(3R)-7-[(3R,4S)-3-(ethylamino)-4-(mcthoxymcthyl)pyrrolidin-1-yl]-3,4-dihydro-2H-1-benzopyran-3-yl]-6-methylthicno[2,3-b]pyridinc-2-carboxamide] | 7.30 to 9.00 | –
8 | CN[C@@H]1CN(c2cc(F)c3c(c2)OC[C@H](NC(=O)c2sc4nc(C)ncc4c2N)C3)C[C@H]1COC [Example 695, 5-amino-N-[(3R)-5-fluoro-7-[(3R,4S)-3-(methoxymethyl)-4-(methylamino)pyrrolidin-1-yl]-3,4-dihydro-2H-1-benzopyran-3-yl]-2-methylthieno[2,3-d]pyrimidine-6-carboxamide] | 5.70 to 6.70 | –
9 | Cc1ccc2c(N)c(C(=O)N[C@H]3COc4cc(N5C[C@H](N)C6(C5)OCCO6)ccc4C3)sc2n1 [Example 681, 3-amino-N-[(3R)-7-[(9S)-9-amino-1,4-dioxa-7-azaspiro[4.4]nonan-7-yl]-3,4-dihydro-2H-1-benzopyran-3-yl]-6-methylthieno[2,3-b]pyridine-2-carboxamide] | 7.30 to 9.00 | –
10 | Cc1ccc2c(N)c(C(=O)N[C@H]3COc4cc(N5C[C@@H](N)C6(C5)OCCO6)ccc4C3)sc2n1 [Example 682, 3-amino-N-[(3R)-7-[(9R)-9-amino-1,4-dioxa-7-azaspiro[4.4]nonan-7-yl]-3,4-dihydro-2H-1-benzopyran-3-yl]-6-methylthieno[2,3-b]pyridine-2-carboxamide] | 6.70 to 7.30 | –
11 | Cc1ccc2c(N)c(C(=O)N[C@H]3COc4cc(N5C[C@H](N)[C@@]6(C5)OCC[C@@H]6C)ccc4C3)sc2n1 [Example 612-1, 3-amino-N-[(3R)-7-[(4S,5R,9S)-9-amino-4-methyl-1-oxa-7-azaspiro[4.4]nonan-7-yl]-3,4-dihydro-2H-1-benzopyran-3-yl]-6-methylthieno[2,3-b]pyridine-2-carboxamide] | 7.30 to 9.00 | –
12 | COC[C@@H]1CN(c2ccc3c(n2)CC[C@H](NC(=O)c2sc4nc(C)c(F)cc4c2N)C3)C[C@@H]1N [Example 513, 3-amino-N-[(6S)-2-[(3R,4R)-3-amino-4-(methoxymethyl)pyrrolidin-1-yl]-5,6,7,8-tetrahydroquinolin-6-yl]-5-fluoro-6-methylthieno[2,3-b]pyridine-2-carboxamide] | – | pIC50 [3]: 6.70 to 7.30
13 | Cc1ccc2c(N)c(C(=O)N[C@H]3CCc4nc(N5C[C@H](N)CC(F)(F)C5)ccc4C3)sc2n1 [Example 519, 3-amino-N-[(6S)-2-[(5R)-5-amino-3,3-difluoropiperidin-1-yl]-5,6,7,8-tetrahydroquinolin-6-yl]-6-methylthieno[2,3-b]pyridine-2-carboxamide] | – | pIC50 [3]: 7.30 to 9.00
14 | Cc1ccc2c(N)c(C(=O)N[C@H]3COc4cc(N5C[C@@H](N)[C@@]6(CCCCO6)C5)ccc4C3)sc2n1 [Example 653, 3-amino-N-[(3R)-7-[(4R,5R)-4-amino-6-oxa-2-azaspiro[4.5]decan-2-yl]-3,4-dihydro-2H-1-benzopyran-3-yl]-6-methylthieno[2,3-b]pyridine-2-carboxamide] | 7.30 to 9.00 | –
15 | Cc1ccc2c(N)c(C(=O)N[C@H]3CCc4nc(N5CC6CC(C5)N6)ccc4C3)sc2n1 [Example 23-10, 3-amino-N-[(6S)-2-{3,6-diazabicyclo[3.1.1]heptan-3-yl}-5,6,7,8-tetrahydroquinolin-6-yl]-6-methylthieno[2,3-b]pyridine-2-carboxamide] | – | pIC50 [2]: 6.70 to 7.30
